{"source": "paper PMC12484987", "about": "(Scientific Reports, 2025)", "origin": "cited, not measured here", "key": {"HIV-1 RT": {"biological_target": "HIV-1 RT (Human immunodeficiency virus type 1 group M subtype B, UniProt P04585)", "details": "quinolines of the previous publication, cited from earlier work"}, "[1]": {"test_system": "MOLT-3 (Acute lymphoblastic leukemia)", "details": "read-out: IC50 cytotoxicity; cited from earlier work"}, "[2]": {"test_system": "HeLa (Cervical carcinoma)", "details": "read-out: IC50 cytotoxicity; cited from earlier work"}, "HL-60 (promyeloblast)": {"test_system": "HL-60 (promyeloblast)", "details": "read-out: IC50 cytotoxicity; cited from earlier work"}}, "note": "Several values for one entry are separate records, joined by “and”; a condition that tells them apart may be missing. Equal entries are not always repeated.", "data": [{"compound": "Cc1cc(C=O)cc(C)c1Oc1cc(Nc2ccc(C#N)cn2)nc2ccccc12", "note": "[4-(2’,6’-dimethyl-4’-formylphenoxy)−2-(5’’-cyanopyridin-2’’ylamino)quinoline]", "values": [{"measurement": "percentage inhibition against HIV-1 RT", "setting": "HIV-1 RT", "result": "44% and 44.5%"}, {"measurement": "IC50", "setting": "HIV-1 RT; read-out: IC50 against HIV-1 RT", "result": 1.93, "unit": "µM"}, {"measurement": "IC50", "setting": "[1]", "result": 12.7, "unit": "µM"}, {"measurement": "IC50", "setting": "[2]", "result": 25.7, "unit": "µM"}, {"measurement": "IC50", "setting": "HL-60 (promyeloblast)", "result": 20.5, "unit": "µM"}]}]}
